Measured values taken from patent publication US8729030B2 (Affymax, Inc., priority 2003, dated 2014).
Bridges are numbered along the chain shown (N, C = ends). Where no end group is shown, it is not given here. [ ]: non-standard residue; d: D form. 1Nal = N[C@@H](Cc1cccc2ccccc12)C(=O)O; Sar = CNCC(=O)O

Tests used:
[1] = biological target: chimeric receptor comprising the extra-cellular portion of the human EPO receptor to the intra-cellular portion of the human GCSF receptor; test: Reporter assay (Baf3/EpoR/GCSFR fos/lux luciferase); assay type: cell-based; conditions: Table 6; Baf3/EpoR/GCSFR fos/lux cells, 4 h
Excerpt: This assay is based upon a on a murine pre-B-cell line derived reporter cell, Baf3/EpoR/GCSFR fos/lux. This reporter cell line expresses a chimeric receptor comprising the extra-cellular portion of the human EPO receptor to the intra-cellular portion of the human GCSF receptor. This cell line is further transfected with a fos promoter-driven luciferase reporter gene construct. Activation of this chimeric receptor through addition of erythropoietic agent results in the expression of the luciferase reporter gene, and therefore the production of light upon addition of the luciferase substrate luciferin. Thus, the level of EPO-R activation in such cells may be quantitated via measurement of luciferase activity.
The Baf3/EpoR/GCSFR fos/lux cells are cultured in DMEM/F12 medium (Gibco) supplemented with 10% fetal bovine serum (FBS; Hyclone), 10% WEHI-3 supernatant (the supernatant from a culture of WEHI-3 cells, ATCC #TIB-68), and penicillin/streptomycin. […] Following a 5-minute incubation, light emission is measured on a Packard Topcount Luminometer (Packard Instrument Co., Downers Grove, Ill.). Light counts are plotted relative to test peptide concentration and analysed using Graph Pad software. The concentration of test peptide that results in a half-maximal emission of light is recorded as the EC50 [See Table 2: Reporter EC50]. […]

[2] = test system: human, bone marrow derived CD34+ cells; test: C/BFU-e assay (erythroid colony formation); assay type: cell-based; conditions: Table 6; colonies 90% of maximum relative to EPO control, 14 days
Excerpt: EPO-R signaling stimulates the differentiation of bone marrow stem cells into proliferating red blood cell presursors. This assay measures the ability of test peptides to stimulate the proliferation and differentiation of red blood cell precursors from primary human bone marrow pluripotent stem cells.
For this assay, serial dilutions of test peptide are made in IMDM medium (Gibco) supplemented with 10% FBS (Hyclone). […] The methylcellulose and peptide mixture is then vortexed thoroughly. Aliquots (100,000 cells/mL) of human, bone marrow derived CD34+ cells (Poietics/Cambrex) are thawed. The thawed cells are gently added to 0.1 mL of 1 mg/ml DNAse (Stem Cells) in a 50 mL tube. Next, 40-50 mL IMDM medium is added gently to cells: the medium is added drop by drop along the side of the 50 mL tube for the first 10 mL, and then the remaining volume of medium is slowly dispensed along the side of the tube. The cells are then spun at 900 rpm for 20 min, and the media removed carefully by gentle aspiration. The cells are resuspended in 1 ml of IMDM medium and the cell density per mL is counted on hemacytometer slide (10 μL aliquot of cell suspension on slide, and cell density is the average count×10,000 cells/ml). The cells are then diluted in IMDM medium to a cell density of 15,000 cells/mL. A 100 μL of diluted cells is then added to each 1.5 mL methyl cellulose plus peptide sample (final cell concentration in assay media is 1000 cells/mL), and the mixture is vortexed. Allow the bubbles in the mixture to disappear, and then aspirate 1 mL using blunt-end needle. Add 0.25 mL aspirated mixture from each sample into each of 4 wells of a 24-well plate (Falcon brand). Incubate the plated mixtures at 37° C. under 5% CO2 in a humid incubator for 14 days. Score for the presence of erythroid colonies using a phase microscope (5×-10× objective, final magnification of 100×).
EPO-R signaling stimulates the differentiation of bone marrow stem cells into proliferating red blood cell precursors. […]

[3] = biological target: T1, Recombinant Human EPO R/Fc Chimera (Homo sapiens, UniProt P19235); test: Radioligand competitive binding assay (125I-EPO); conditions: Table 6; competition with 125I-EPO, 4° C. overnight
T1 construct: recombinant EPOr extracellular domain fused to the Fc portion of human IgG1; purchased R&D Systems (Minneapolis, MN, US) 963-ER
T1 sequence (P19235 25-250 limits assumed): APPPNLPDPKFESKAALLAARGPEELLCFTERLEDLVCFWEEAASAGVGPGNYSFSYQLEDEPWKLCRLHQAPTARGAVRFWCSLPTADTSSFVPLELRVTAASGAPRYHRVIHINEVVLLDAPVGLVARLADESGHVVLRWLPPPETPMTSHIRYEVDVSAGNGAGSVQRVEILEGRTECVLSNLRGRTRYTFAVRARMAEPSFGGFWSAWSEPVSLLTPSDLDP
Procedure: An alternative radioligand competition binding assay can also be used to measure IC50 values of peptides in this invention. This assay measures binding of ^125I-EPO to EPOr. The assay is preferably performed according to the following exemplary protocol:
One 50 μg vial of lyophilized recombinant EPOr extracellular domain fused to the Fc portion of human IgG1 is reconstituted in 1 mL of assay buffer. […] Tubes are capped and mixed gently at 4° C. overnight on a LabQuake rotating shaker.
The next day, 50 μL of a 50% slurry of Protein-G Sepharose is added to each tube. Tubes are then incubated for 2 hours at 4° C., mixing gently. The tubes are then centrifuged for 15 min at 4000 RPM (3297×G) to pellet the protein-G sepharose. The supernatants are carefully removed and discarded. After washing 3 times with 1 mL of 4° C. assay buffer, the pellets are counted in a Wallac Wizard gamma counter. Results are then analyzed and the dilution required to reach 50% of the maximum binding value is calculated.
The next day, bound ^125I-EPO is quantitated as described above. The results are analyzed and the IC50 value calculated using Graphpad Prism version 4.0, from GraphPad Software, Inc. (San Diego, Calif.). The assay is repeated two or more times for each peptide tested, for a total of 3 or more replicate IC50 determinations. See Table 6 for IC50 values of Peptide I.

EC50 [1]: 0.195 nM
EC90 [2]: 3 nM
IC50 [3]: 0.111 nM
Substance: peptide dimer of monomers (AcG)GLYACHMGPIT(1-nal)VCQPLR(MeG)K (SEQ ID NO: 2) (Ac-GGLYACHMGPIT[1Nal]VCQPLR[Sar]K; disulfide 6-15 (inferred); not fully specified (residue 1); printed as (AcG)GLYACHMGPIT(1-nal)VCQPLR(MeG)K; also: homodimer, dimer linkage not given here) [Peptide I]
